In article PMC7332124, “Design, One Pot Synthesis and Molecular Docking Studies of Substituted-1H-Pyrido[2,1-b] Quinazolines as Apoptosis-Inducing Anticancer Agents” (Asian Pacific Journal of Cancer Prevention : APJCP, 2020):
Where two headings read alike, the source gives them in different places.

Legend:
A549 [1] = test: Cell growth inhibition assay (MTT, day 0 subtracted); assay type: cell-based, human; details: 72 h, read-out: In vitro Growth Inhibitory Concentration (GI50)
Method: (§1) Various cancer cells were used to screen anticancer activity of newly synthesized compounds. Lung (A549 and NCI-H460), colon (HCT-15 and HT-29), prostate (DU-145) cancer cells maintained in RPMI-1640 media while normal lung fibroblasts cell line (HFL-1) were maintained in F-12 k medium supplemented with 10% fetal bovine serum (FBS) with 1% antibiotic-antimycotic solution (Sigma). Cells were maintained in 5% CO2 with 98% relative humidity at 37 °C in incubator. When 80-90% of confluency is reached, they were sub-cultured using 0.25% trypsin/1 mM EDTA solution for further passage. The compounds in this series were dissolved in DMSO (1 %) to prepare the stock solution of 10 mM. Further dilutions were made accordingly with respective media to obtain the required concentrations.
(§2) Briefly, the cells were seeded on to a 96-well plate in 100 µl of medium. Following 24 h MTT reagent was added in few wells and day 0 absorbance was analyzed, and then cells were treated with compounds and incubated for an additional 72 h. After the treatment, 100 µl of MTT (0.5 mg/ml) was added and incubated at 37 °C for 4 h. Then MTT reagent was suctioned, the insoluble formazan crystals were dissolved in DMSO and formazan product formed is measured at 570 nm wavelength. The day 0 absorbance was subtracted from the 72 h incubated plates and data were plotted as a percentage of untreated control (Dai et al., 2011).

HT-29 [2] = test: as above; assay type: cell-based, human; details: 72 h, read-out: In vitro Growth Inhibitory Concentration (GI50)
Method: as §1, §2

HCT-15 [3] = test: as above; assay type: cell-based, human; details: 72 h, read-out: In vitro Growth Inhibitory Concentration (GI50)
Method: as §1, §2

DU-145 [4] = test: as above; assay type: cell-based, human; details: 72 h, read-out: In vitro Growth Inhibitory Concentration (GI50)
Method: as §1, §2

NCI-H460 [5] = test: as above; assay type: cell-based, human; details: 72 h, read-out: In vitro Growth Inhibitory Concentration (GI50)
Method: as §1, §2

[6] = tested on: HFL-1 normal lung fibroblasts; test: as above; assay type: cell-based, human; details: read-out: In vitro Growth Inhibitory Concentration (GI50)
Method: as §1, §2

A549 [7] = test: MTT cytotoxicity assay; assay type: cell-based, human; details: A549 adenocarcinoma (lung), MTT, 72 h, read-out: In vitro Inhibitory Concentration (IC50)
Method: as §1
(§3) MTT assay measures the reduction of MTT (3-(4,5-dimethylthiazol- 2-yl)-2,5-diphenyl tetrazolium bromide) by mitochondrial succinate dehydrogenase enzyme to insoluble formazan crystals. Since reduction of MTT occurs only in metabolically active cells, the level of activity is the measure of the viability of the cells.(Pordeli et al., 2017). Briefly, cells were plated in 96-well plates at a density of 3,000 to 6,000 cells per well in 100 µl of complete medium and allowed to grow overnight. Then the cells were treated with different concentrations of the synthesized compounds and incubated for 72 h. After the treatment, 100 µl of MTT (0.5 mg/ml) was added and incubated at 37 °C for 4 h. Then MTT reagent was aspirated and formazan crystals formed were dissolved by the addition of 200 µL of DMSO for 20 min at 37 °C. The formazan product quantity was measured by using a spectrophotometric microtiter plate reader (Spectra Max, M4 Molecular devices, USA) at 570 nm wavelength(Nekkanti et al., 2017).

HT-29 [8] = test: MTT cytotoxicity assay; assay type: cell-based, human; details: HT-29 colorectal cancer, 72 h, read-out: In vitro Inhibitory Concentration (IC50)
Method: as §1, §3

HCT-15 [9] = test: MTT cytotoxicity assay; assay type: cell-based, human; details: HCT-15 colon cancer, 72 h, read-out: In vitro Inhibitory Concentration (IC50)
Method: as §1, §3

DU-145 [10] = test: MTT cytotoxicity assay; assay type: cell-based, human; details: DU-145 prostate cancer, 72 h, read-out: In vitro Inhibitory Concentration (IC50)
Method: as §1, §3

NCI-H460 [11] = test: MTT cytotoxicity assay; assay type: cell-based, human; details: NCI-H460 lung carcinoma, 72 h, read-out: In vitro Inhibitory Concentration (IC50)
Method: as §1, §3

[12] = tested on: HFL-1 normal lung fibroblasts; test: MTT cytotoxicity assay; assay type: cell-based, human; details: read-out: In vitro Inhibitory Concentration (IC50)
Method: as §1, §3

GI50 (A549 [1]) [µM]	GI50 (HT-29 [2]) [µM]	GI50 (HCT-15 [3]) [µM]	GI50 (DU-145 [4]) [µM]	GI50 (NCI-H460 [5]) [µM]	GI50 (A549 [1]; Homo sapiens) [µM]	GI50 (HT-29 [2]; Homo sapiens) [µM]	GI50 (HCT-15 [3]; Homo sapiens) [µM]	GI50 (DU-145 [4]; Homo sapiens) [µM]	GI50 (NCI-H460 [5]; Homo sapiens) [µM]	melting point [°C]	Compound	GI50 ([6]; 72 h) [µM]	IC50 (A549 [7]) [µM]	GI50 ([6]; Homo sapiens, HFL1, 72 h) [µM]	IC50 (A549 [7]; Homo sapiens) [µM]	IC50 (HT-29 [8]; Homo sapiens) [µM]	IC50 (HCT-15 [9]; Homo sapiens) [µM]	IC50 (DU-145 [10]; Homo sapiens) [µM]	IC50 (NCI-H460 [11]; Homo sapiens) [µM]	IC50 ([12]; Homo sapiens, HFL1, 72 h) [µM]	further results
29.5 ± 0.79	15.8 ± 0.97	23.44 ± 0.2	17.7 ± 0.13	20.8 ± 1.82							Cc1ccc(C2C3=C(CCCC3)N=C3C=CC=CN32)cc1 (stereo not drawn) [Compound 4e]	68.6 ± 3.2	43.1 ± 2.43								IC50 (HT-29 [8]): 39.5 ± 1.4 µM; IC50 (HCT-15 [9]): 40.9 ± 0.55 µM; IC50 (DU-145 [10]): 23.2 ± 0.25 µM; IC50 (NCI-H460 [11]): 43.2 ± 2.58 µM; IC50 ([12]; 72 h): 85 ± 3.8 µM
					9.23 ± 0.93	20.8 ± 3.74	10 ± 0.97	7.37 ± 2.5	17.5 ± 2.05	88 to 93	Fc1ccc(C2C3=C(CCCC3)N=C3C=CC(Cl)=CN32)cc1 (stereo not drawn) [Compound 4g, 8-chloro-11-(4-fluorophenyl)-2,3,4,11-tetrahydro-1H-pyrido[2,1-b]quinazoline]			41.7 ± 0.98	25.5 ± 3.98	41.3 ± 1.43	28.6 ± 1.96	32.9 ± 3.77	41.5 ± 1.27	63.1 ± 1.79	
					5.79 ± 0.14	4.4 ± 0.2	7.81 ± 0.65	8.1 ± 0.1	7.1 ± 0.19	180 to 182	C1=CC2=NC3=C(CCCC3)C(c3c[nH]c4ccccc34)N2C=C1 (stereo not drawn) [Compound 4j, 11-(1H-indol-3-yl)-2,3,4, 11-tetrahydro-1H-pyrido [2,1-b]quinazoline]			7.67 ± 0.22	8.98 ± 0.32	7.25 ± 0.38	10.9 ± 0.4	12.6 ± 0.23	9.27 ± 0.54	9.31 ± 0.32	
					8.64 ± 0.4	11.43 ± 0.06	12.9 ± 0.73	11.3 ± 0.34	9.62 ± 0.41	131 to 132	ClC1=CN2C(=NC3=C(CCCC3)C2c2ccc(Cl)cc2)C=C1 (stereo not drawn) [Compound 4f, 8-Chloro-11-(4-chlorophenyl)-2,3,4, 11-tetrahydro-1H-pyrido [2,1-b] quinazoline]			11.6 ± 0.17	12.8 ± 1.5	15.4 ± 0.11	19.3 ± 1.16	16.08 ± 0.14	12.6 ± 0.35	15.2 ± 0.3	

The remaining lines, values behind:

Compound	GI50 (A549 [1]) [µM]	GI50 (HT-29 [2]) [µM]	GI50 (HCT-15 [3]) [µM]	GI50 (DU-145 [4]) [µM]	GI50 (NCI-H460 [5]) [µM]	GI50 (A549 [1]; Homo sapiens) [µM]	GI50 (HT-29 [2]; Homo sapiens) [µM]	GI50 (HCT-15 [3]; Homo sapiens) [µM]	GI50 (DU-145 [4]; Homo sapiens) [µM]	GI50 (NCI-H460 [5]; Homo sapiens) [µM]	melting point [°C]	GI50 ([6]; 72 h) [µM]	IC50 (A549 [7]) [µM]	GI50 ([6]; Homo sapiens, HFL1, 72 h) [µM]	IC50 (A549 [7]; Homo sapiens) [µM]	IC50 (HT-29 [8]; Homo sapiens) [µM]	IC50 (HCT-15 [9]; Homo sapiens) [µM]	IC50 (DU-145 [10]; Homo sapiens) [µM]	IC50 (NCI-H460 [11]; Homo sapiens) [µM]	IC50 ([12]; Homo sapiens, HFL1, 72 h) [µM]	further results
Clc1ccc(C2C3=C(CCCC3)N=C3C=CC=CN32)cc1 (stereo not drawn) [Compound 4b, 11-(4-Chlorophenyl)-2,3,4, 11-tetrahydro-IH-pyrido [2,1-b] quinazoline]	> 30	> 30	> 30	> 30	> 30							> 30	> 30								IC50 (HT-29 [8]): > 30 µM; IC50 (HCT-15 [9]): > 30 µM; IC50 (DU-145 [10]): > 30 µM; IC50 (NCI-H460 [11]): > 30 µM; IC50 ([12]; 72 h): > 30 µM
C1=CC2=NC3=C(CCCC3)C(c3ccccc3)N2C=C1 (stereo not drawn) [Compound 4a, 11-Phenyl-2,3,4, 11-tetrahydro-1H-pyrido [2,1-b] quinazoline]						> 30	> 30	> 30	> 30	> 30	154 to 156			> 30	> 30	> 30	> 30	> 30	> 30	> 30	
11-(4-trimethoxyphenyl)-2, 3, 4, 11-tetrahydro-1H-pyrido[2,1-b] quinazoline [Compound 4h]	> 30	> 30	> 30	> 30	> 30							> 30	> 30								IC50 (HT-29 [8]): > 30 µM; IC50 (HCT-15 [9]): > 30 µM; IC50 (DU-145 [10]): > 30 µM; IC50 (NCI-H460 [11]): > 30 µM; IC50 ([12]; 72 h): > 30 µM
COc1ccc(C2C3=C(CCCC3)N=C3C=CC=CN32)cc1 (stereo not drawn) [Compound 4d, 11-(4-Methoxyphenyl)-2,3,4, 11-tetrahydro-1H-pyrido[2,1-b]quinazoline]						> 30	> 30	> 30	> 30	> 30	88 to 89			> 30	> 30	> 30	> 30	> 30	> 30	> 30	
O=[N+]([O-])c1ccc(C2C3=C(CCCC3)N=C3C=CC=CN32)cc1 (stereo not drawn) [Compound 4c, 11-(4-Nitrophenyl)-2,3,4, 11-tetrahydro-1H-pyrido[2,1-b]quinazoline]						> 30	> 30	> 30	> 30	> 30	150 to 151			> 30	> 30	> 30	> 30	> 30	> 30	> 30	
